Measurements reported in patent US8541460B2, “PDK-1/Akt signaling inhibitors” (The Ohio State University, priority 2003, dated 2013).

Columns and labels:
Assay type in all cases: cell-based
[1] = tested on: HCT-15; assay: NCI DTP cell line screen (SRB), Colon Cancer
[2] = tested on: SK-MEL-28; assay: NCI DTP cell line screen (SRB), Melanoma
Method: (§1) Screening of compounds 70 and 71 against several cancer cell lines The human tumor cell lines of the cancer screening panel are grown in RPMI 1640 medium containing 5% fetal bovine serum and 2 mM L-glutamine. For a typical screening experiment, cells are inoculated into 96 well microtiter plates in 100 μL at plating densities ranging from 5,000 to 40,000 cells/well depending on the doubling time of individual cell lines. After cell inoculation, the microtiter plates are incubated at 37° C., 5% CO2, 95% air and 100% relative humidity for 24 h prior to addition of experimental drugs.
(§2) After 24 h, two plates of each cell line are fixed in situ with TCA, to represent a measurement of the cell population for each cell line at the time of drug addition (Tz). Experimental drugs are solubilized in dimethyl sulfoxide at 400-fold the desired final maximum test concentration and stored frozen prior to use. At the time of drug addition, an aliquot of frozen concentrate is thawed and diluted to twice the desired final maximum test concentration with complete medium containing 50 μg/ml gentamicin. Additional four, 10-fold or ½ log serial dilutions are made to provide a total of five drug concentrations plus control. Aliquots of 100 μl of these different drug dilutions are added to the appropriate microtiter wells already containing 100 μl of medium, resulting in the required final drug concentrations.
(§3) Following drug addition, the plates are incubated for an additional 48 h at 37° C., 5% CO2, 95% air, and 100% relative humidity. For adherent cells, the assay is terminated by the addition of cold TCA. Cells are fixed in situ by the gentle addition of 50 μl of cold 50% (w/v) TCA (final concentration, 10% TCA) and incubated for 60 minutes at 4° C. The supernatant is discarded, and the plates are washed five times with tap water and air dried. Sulforhodamine B (SRB) solution (100 μl) at 0.4% (w/v) in 1% acetic acid is added to each well, and plates are incubated for 10 minutes at room temperature. After staining, unbound dye is removed by washing five times with 1% acetic acid and the plates are air dried. Bound stain is subsequently solubilized with 10 mM trizma base, and the absorbance is read on an automated plate reader at a wavelength of 515 nm. For suspension cells, the methodology is the same except that the assay is terminated by fixing settled cells at the bottom of the wells by gently adding 50 μl of 80% TCA (final concentration, 16% TCA). Using the seven absorbance measurements [time zero, (Tz), control growth, (C), and test growth in the presence of drug at the five concentration levels (Ti)], the percentage growth is calculated at each of the drug concentrations levels. Percentage growth inhibition is calculated as: [(Ti−Tz)/(C−Tz)]×100 for concentrations for which Ti>/=Tz [(Ti−Tz)/Tz]×100 for concentrations for which Ti<Tz
(§4) Three dose response parameters are calculated for each experimental agent. […] The drug concentration resulting in total growth inhibition (TGI) is calculated from Ti=Tz. […] Values are calculated for each of these three parameters if the level of activity is reached; however, if the effect is not reached or is exceeded, the value for that parameter is expressed as greater or less than the maximum or minimum concentration tested.
(§5) The methods described were used to test compounds 70 and 71 on a panel of sixty cell lines under a screening service provided by the Developmental Therapeutics Program at the National Institutes of Health. Shown in FIG. 1C are 1, RPMI-8226 leukemia cells; 2; NCI-H322M non-small cell lung cancer cells; 3, HT29 colon cancer cells; 4, U251 CNS cancer cells; 5, SK-MEL-28 melanoma cancer cells; 6, SK-OV-3 ovarian cancer cells; 7, RXF 393 renal cancer cells; 8, PC-3 prostate cancer cells; 9, MDA-MB-231 breast cancer cells.

[3] = tested on: M14; assay: NCI DTP cell line screen (SRB), Melanoma
Method: as §1, §2, §3, §4, §5

[4] = tested on: LOX IMVI; assay: NCI DTP cell line screen (SRB), Melanoma
Method: as §1, §2, §3, §4, §5

[5] = tested on: SK-MEL-2; assay: NCI DTP cell line screen (SRB), Melanoma
Method: as §1, §2, §3, §4, §5

[6] = tested on: A498; assay: NCI DTP cell line screen (SRB), Renal Cancer
Method: as §1, §2, §3, §4, §5

[7] = tested on: SN12C; assay: NCI DTP cell line screen (SRB), Renal Cancer
Method: as §1, §2, §3, §4, §5

[8] = tested on: NCI-H460; assay: NCI DTP cell line screen (SRB), Non-Small Cell Lung Cancer
Method: as §1, §2, §3, §4, §5

SMILES: NCC(=O)Nc1ccc(-n2nc(C(F)(F)F)cc2-c2ccc3c(ccc4ccccc43)c2)cc1 [Compound 70, 2-Amino-N-{4-[5-(2-phenanthrenyl)-3-(trifluoromethyl)-1H-pyrazol-1-yl]-phenyl}-acetamide]
- TGI [1]: 3.19E−06
- Percent Growth ([1]; Log10 Concentration −5.0): −47%
- Percent Growth ([1]; Log10 Concentration −6.0): 47%
- Percent Growth ([1]; Log10 Concentration −7.0): 54%
- Percent Growth ([1]; Log10 Concentration −8.0): 81%
- TGI [2]: 2.64E−06
- Percent Growth ([2]; Log10 Concentration −4.0): −59%
- Percent Growth ([2]; Log10 Concentration −5.0): −87%
- Percent Growth ([2]; Log10 Concentration −6.0): 63%
- Percent Growth ([2]; Log10 Concentration −7.0): 83%
- Percent Growth ([2]; Log10 Concentration −8.0): 94%
- TGI [3]: 5.37E−06
- Percent Growth ([3]; Log10 Concentration −4.0): −19%
- Percent Growth ([3]; Log10 Concentration −5.0): −33%
- Percent Growth ([3]; Log10 Concentration −6.0): 90%
- Percent Growth ([3]; Log10 Concentration −7.0): 98%
- Percent Growth ([3]; Log10 Concentration −8.0): 98%
- TGI [4]: 3.07E−06
- Percent Growth ([4]; Log10 Concentration −5.0): −50%
- Percent Growth ([4]; Log10 Concentration −6.0): 48%
- Percent Growth ([4]; Log10 Concentration −7.0): 76%
- Percent Growth ([4]; Log10 Concentration −8.0): 105%
- TGI [5]: 5.40E−06
- Percent Growth ([5]; Log10 Concentration −4.0): −28%
- Percent Growth ([5]; Log10 Concentration −5.0): −37%
- Percent Growth ([5]; Log10 Concentration −6.0): 100%
- Percent Growth ([5]; Log10 Concentration −7.0): 117%
- Percent Growth ([5]; Log10 Concentration −8.0): 114%
- TGI [6]: 5.75E−06
- Percent Growth ([6]; Log10 Concentration −4.0): −54%
- Percent Growth ([6]; Log10 Concentration −5.0): −30%
- Percent Growth ([6]; Log10 Concentration −6.0): 95%
- Percent Growth ([6]; Log10 Concentration −7.0): 126%
- Percent Growth ([6]; Log10 Concentration −8.0): 98%
- TGI [7]: 3.51E−06
- Percent Growth ([7]; Log10 Concentration −4.0): −47%
- Percent Growth ([7]; Log10 Concentration −5.0): −65%
- Percent Growth ([7]; Log10 Concentration −6.0): 78%
- Percent Growth ([7]; Log10 Concentration −7.0): 94%
- Percent Growth ([7]; Log10 Concentration −8.0): 96%
- TGI [8]: 2.64E−06
- Percent Growth ([8]; Log10 Concentration −4.0): −33%
- Percent Growth ([8]; Log10 Concentration −5.0): −46%
- Percent Growth ([8]; Log10 Concentration −6.0): 34%
- Percent Growth ([8]; Log10 Concentration −7.0): 77%
- Percent Growth ([8]; Log10 Concentration −8.0): 97%
